Assay results: ChEMBL document CHEMBL6096636 (Bioorg Med Chem, 2024)

Legend:
[1] = Apparent clearance during terminal phase in female Balb/c mouse at 5 mg/kg, ip measured after 24 hrs by LC-MS/MS analysis; format: ADME, organism-based; details: in vivo, read-out: CLz/F (converted)
[2] = Selectivity index, ratio of IC50 for human HepG2 cells to IC50 for erythrocytic stage of Plasmodium falciparum 3D7; format: toxicity, cell-based; details: read-out: Ratio IC50
[3] = target: T1, Protein deacetylase HDAC6 (Homo sapiens, UniProt Q9UBN7); test: Inhibition of recombinant human HDAC6 using Ac-peptide as substrate preincubated for 15 mins followed by substrate addition and measured after 60 mins
T1 sequence (Q9UBN7 whole entry): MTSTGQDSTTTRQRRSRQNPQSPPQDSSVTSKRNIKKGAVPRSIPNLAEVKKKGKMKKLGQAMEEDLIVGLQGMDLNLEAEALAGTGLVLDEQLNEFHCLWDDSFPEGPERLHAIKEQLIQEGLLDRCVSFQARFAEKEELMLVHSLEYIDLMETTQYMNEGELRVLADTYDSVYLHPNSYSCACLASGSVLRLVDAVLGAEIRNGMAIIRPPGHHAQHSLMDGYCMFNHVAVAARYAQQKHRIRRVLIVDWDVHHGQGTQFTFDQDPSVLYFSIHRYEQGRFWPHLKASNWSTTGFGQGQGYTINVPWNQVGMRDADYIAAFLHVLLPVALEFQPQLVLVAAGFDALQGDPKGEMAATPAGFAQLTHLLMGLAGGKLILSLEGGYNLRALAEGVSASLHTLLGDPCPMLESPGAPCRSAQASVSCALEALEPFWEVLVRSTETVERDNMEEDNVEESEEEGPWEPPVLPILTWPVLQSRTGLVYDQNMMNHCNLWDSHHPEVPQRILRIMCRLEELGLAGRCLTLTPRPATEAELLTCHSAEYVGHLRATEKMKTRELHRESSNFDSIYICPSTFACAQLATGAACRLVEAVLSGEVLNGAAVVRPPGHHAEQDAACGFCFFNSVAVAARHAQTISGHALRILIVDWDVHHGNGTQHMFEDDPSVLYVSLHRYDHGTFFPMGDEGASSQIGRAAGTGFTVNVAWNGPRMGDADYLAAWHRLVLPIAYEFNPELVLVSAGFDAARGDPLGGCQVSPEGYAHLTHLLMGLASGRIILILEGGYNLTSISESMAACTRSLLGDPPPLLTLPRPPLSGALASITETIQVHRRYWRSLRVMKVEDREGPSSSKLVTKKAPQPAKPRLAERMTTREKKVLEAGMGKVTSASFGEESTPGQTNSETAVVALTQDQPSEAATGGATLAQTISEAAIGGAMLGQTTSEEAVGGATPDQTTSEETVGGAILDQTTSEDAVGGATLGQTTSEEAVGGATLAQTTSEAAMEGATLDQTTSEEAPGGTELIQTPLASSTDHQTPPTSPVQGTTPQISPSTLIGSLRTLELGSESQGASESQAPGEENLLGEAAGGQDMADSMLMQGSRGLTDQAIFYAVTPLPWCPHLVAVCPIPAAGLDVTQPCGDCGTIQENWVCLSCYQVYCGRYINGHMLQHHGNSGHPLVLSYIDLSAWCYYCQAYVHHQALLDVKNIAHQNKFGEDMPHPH

[4] = AUC (0 to t) in female Balb/c mouse at 5 mg/kg, ip measured after 24 hrs by LC-MS/MS analysis; format: ADME, organism-based; details: in vivo
[5] = Selectivity index, ratio of IC50 for HEK293T cells to IC50 for erythrocytic stage of Plasmodium falciparum 3D7; format: toxicity, cell-based; details: human, read-out: Ratio IC50

Cc1ccc2c(CN[C@H]3CC[C@@H](Nc4ncc(C(=O)NO)cn4)CC3)cn(C)c2c1.Cl gave a CL/F [1] of 97.7 mL/min/kg, a selectivity ratio [2] of 469 and an IC50 [3] of 0.06 µM. The AUC(0-t) at 24 h [4] was 833 ng·h/mL and the selectivity ratio [5] was 687.
